Calls of active or inactive are those of the source. No cut-off for these calls is given here.
Assays:
Cytochrome P450 3A = Cytochrome P450 3A (Homo sapiens, UniProt P08684+P20815+Q9HB55+P24462); experiment: Time dependent inhibition of CYP3A (unknown origin) at 10 uM relative to control; format: ADME, protein assay
[1] = Metabolic stability in human hepatocyte assessed as intrinsic clearance measured per million cells HPLC/UV/MS analysis; format: ADME, cell-based; conditions: hepatocytes, read-out: CLH
[2] = Lipophilicity, logD of compound at pH 7.4 by shake flask method; format: physicochemical; conditions: buffer
[3] = molecular target: Melanocyte-stimulating hormone receptor (Homo sapiens, UniProt Q01726); experiment: Agonist activity at human MC1R expressed in CHO cells assessed as increase in alpha-MSH induced cAMP level measured for 60 mins; format: functional, cell-based
[4] = Displacement of [125I]-NDP-alpha-MSH from dog MC4R expressed in CHO cells by microbeta counter analysis; format: cell-based, Canis lupus familiaris
Melanocortin receptor 5 = Melanocortin receptor 5 (Homo sapiens, UniProt P33032); experiment: Agonist activity at human MC5R expressed in CHO cells assessed as increase in alpha-MSH induced cAMP level measured for 60 mins; format: functional, cell-based
[5] = Clearance in Wistar Han rat plasma at 1 mg/kg, iv measured at 0.033 to 24 hrs by LC-MS/MS analysis; format: ADME, organism-based; conditions: time 0.033-24 hrs
[6] = Clearance in Beagle dog plasma at 1 mg/kg, iv measured at 0.033 to 24 hrs by LC-MS/MS analysis; format: ADME, organism-based, Canis lupus familiaris; conditions: time 0.033-24 hrs
[7] = Volume of distribution at steady state in Wistar Han rat at 1 mg/kg, iv measured at 0.033 to 24 hrs by LC-MS/MS analysis; format: ADME, organism-based; conditions: in vivo, time 0.033-24 hrs, read-out: Vdss
[8] = Half life in Wistar Han rat at 5 mg/kg, po measured at 0.083 to 24 hrs by LC-MS/MS analysis; format: ADME, organism-based; conditions: in vivo, time 0.083-24 hrs
[9] = Half life in Beagle dog at 1 mg/kg, iv measured at 0.033 to 24 hrs by LC-MS/MS analysis; format: ADME, organism-based, Canis lupus familiaris; conditions: in vivo, time 0.033-24 hrs
[10] = Half life in Beagle dog at 1 mg/kg, po measured at 0.25 to 24 hrs by LC-MS/MS analysis; format: ADME, organism-based, Canis lupus familiaris; conditions: in vivo, time 0.25-24 hrs
[11] = Tmax in Wistar Han rat at 5 mg/kg, po measured at 0.083 to 24 hrs by LC-MS/MS analysis; format: ADME, organism-based; conditions: in vivo, time 0.083-24 hrs
[12] = Tmax in Beagle dog at 1 mg/kg, po measured at 0.25 to 24 hrs by LC-MS/MS analysis; format: ADME, organism-based, Canis lupus familiaris; conditions: in vivo, time 0.25-24 hrs
[13] = AUC (0 to infinity) in Wistar Han rat at 1 mg/kg, iv measured at 0.033 to 24 hrs by LC-MS/MS analysis; format: ADME, organism-based; design: time upper 24 hrs, dose 1 mg/kg, time lower 0.033 hrs, route iv; conditions: in vivo
[14] = AUC (0 to infinity) in Wistar Han rat at 5 mg/kg, po measured at 0.083 to 24 hrs by LC-MS/MS analysis; format: ADME, organism-based; design: dose 5 mg/kg, time 0.083-24 hrs, route po; conditions: in vivo
[15] = AUC (0 to infinity) in Beagle dog at 1 mg/kg, iv measured at 0.033 to 24 hrs by LC-MS/MS analysis; format: ADME, organism-based, Canis lupus familiaris; design: time upper 24 hrs, dose 1 mg/kg, time lower 0.033 hrs, route iv; conditions: in vivo
[16] = AUC (0 to infinity) in Beagle dog at 1 mg/kg, po measured at 0.25 to 24 hrs by LC-MS/MS analysis; format: ADME, organism-based, Canis lupus familiaris; design: time upper 24 hrs, time lower 0.25 hrs, dose 1 mg/kg, route po; conditions: in vivo
[17] = AUClast in Wistar Han rat at 1 mg/kg, iv measured at 0.033 to 24 hrs by LC-MS/MS analysis; format: ADME, organism-based; design: dose 1 mg/kg, time upper 24 hrs, time lower 0.033 hrs, route iv; conditions: in vivo
[18] = AUClast in Beagle dog at 1 mg/kg, iv measured at 0.033 to 24 hrs by LC-MS/MS analysis; format: ADME, organism-based, Canis lupus familiaris; design: dose 1 mg/kg, time 0.033-24 hrs, route iv; conditions: in vivo
[19] = AUClast in Beagle dog at 1 mg/kg, po measured at 0.25 to 24 hrs by LC-MS/MS analysis; format: ADME, organism-based, Canis lupus familiaris; design: time upper 24 hrs, dose 1 mg/kg, time lower 0.25 hrs, route po; conditions: in vivo
[20] = Oral bioavailability in Beagle dog at 1 mg/kg measured at 0.25 to 24 hrs by LC-MS/MS analysis; format: ADME, organism-based, Canis lupus familiaris; conditions: in vivo, time 0.25-24 hrs
Mus musculus [21] = experiment: Effect on body weight in anorexia/cachexia mouse model assessed as body weight gain administered twice a day for 20 days and measured at 1 to 21 days; format: functional, organism-based; conditions: dose 0.3-10 mg/kg, time 1-21 day
Mus musculus [22] = experiment: Effect on body weight in anorexia/cachexia mouse model assessed as cumulative body weight gain at 0.3 mg/kg, po administered twice a day for 20 days and measured at 1 to 21 days; format: functional; conditions: time 1-21 day
Mus musculus [23] = experiment: Effect on body weight in anorexia/cachexia mouse model assessed as cumulative body weight gain at 1 mg/kg, po administered twice a day for 20 days and measured at 1 to 21 days; format: functional; conditions: time 1-21 day
Mus musculus [24] = experiment: Effect on body weight in anorexia/cachexia mouse model assessed as cumulative body weight gain at 10 mg/kg, po administered twice a day for 20 days and measured at 1 to 21 days; format: functional; conditions: time 1-21 day
Mus musculus [25] = experiment: Effect on body weight in anorexia/cachexia mouse model assessed as reduction in cumulative food intake at 0.3 mg/kg, po administered twice a day for 20 days and measured at 1 to 21 days; format: functional; design: scale not given: the % may be the effect or the level left; conditions: time 1-21 day
Mus musculus [26] = experiment: Effect on body weight in anorexia/cachexia mouse model assessed as reduction in cumulative food intake at 3 mg/kg, po administered twice a day for 20 days and measured at 1 to 21 days; format: functional; design: scale not given: the % may be the effect or the level left; conditions: time 20 day
Mus musculus [27] = experiment: Effect on body weight in anorexia/cachexia mouse model assessed as reduction in cumulative food intake at 10 mg/kg, po administered twice a day for 20 days and measured at 1 to 21 days; format: functional; design: scale not given: the % may be the effect or the level left; conditions: time 20 day
[28] = molecular target: cGMP-dependent 3',5'-cyclic phosphodiesterase (Homo sapiens, UniProt O00408); experiment: Inhibition of human PDE2A1
[29] = molecular target: cGMP-inhibited 3',5'-cyclic phosphodiesterase 3A (Homo sapiens, UniProt Q14432); experiment: Inhibition of human PDE3A
[30] = molecular target: 3',5'-cyclic-AMP phosphodiesterase 4D (Homo sapiens, UniProt Q08499); experiment: Inhibition of human PDE4D3
[31] = molecular target: cGMP-specific 3',5'-cyclic phosphodiesterase (Homo sapiens, UniProt O76074); experiment: Inhibition of human PDE5A1
Phosphodiesterase 6 = experiment: Inhibition of human PDE6; format: protein assay
[32] = molecular target: 3',5'-cyclic-AMP phosphodiesterase 7B (Homo sapiens, UniProt Q9NP56); experiment: Inhibition of human PDE7B
[33] = molecular target: High affinity cAMP-specific and IBMX-insensitive 3',5'-cyclic phosphodiesterase 8B (Homo sapiens, UniProt O95263); experiment: Inhibition of human PDE8B
[34] = molecular target: High affinity cGMP-specific 3',5'-cyclic phosphodiesterase 9A (Homo sapiens, UniProt O76083); experiment: Inhibition of human PDE9A1
[35] = molecular target: cAMP and cAMP-inhibited cGMP 3',5'-cyclic phosphodiesterase 10A (Homo sapiens, UniProt Q9Y233); experiment: Inhibition of human PDE10A1
[36] = molecular target: Dual 3',5'-cyclic-AMP and -GMP phosphodiesterase 11A (Homo sapiens, UniProt Q9HCR9); experiment: Inhibition of human PDE11A4
[37] = molecular target: Voltage-dependent L-type calcium channel subunit alpha-1C (Homo sapiens, UniProt Q13936); experiment: Inhibition of Cav1.2 (unknown origin)

Melanocyte-stimulating hormone receptor, sequence (Q01726 whole entry, looked up): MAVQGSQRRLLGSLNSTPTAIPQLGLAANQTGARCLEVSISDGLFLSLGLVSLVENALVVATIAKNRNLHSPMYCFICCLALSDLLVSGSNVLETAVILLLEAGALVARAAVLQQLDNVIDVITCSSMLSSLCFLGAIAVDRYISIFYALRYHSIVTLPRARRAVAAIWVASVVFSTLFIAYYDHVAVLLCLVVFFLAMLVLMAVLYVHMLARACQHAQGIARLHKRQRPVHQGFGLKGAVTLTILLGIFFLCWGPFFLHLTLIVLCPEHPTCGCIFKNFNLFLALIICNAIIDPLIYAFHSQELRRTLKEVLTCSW
cGMP-dependent 3',5'-cyclic phosphodiesterase, sequence (O00408 whole entry): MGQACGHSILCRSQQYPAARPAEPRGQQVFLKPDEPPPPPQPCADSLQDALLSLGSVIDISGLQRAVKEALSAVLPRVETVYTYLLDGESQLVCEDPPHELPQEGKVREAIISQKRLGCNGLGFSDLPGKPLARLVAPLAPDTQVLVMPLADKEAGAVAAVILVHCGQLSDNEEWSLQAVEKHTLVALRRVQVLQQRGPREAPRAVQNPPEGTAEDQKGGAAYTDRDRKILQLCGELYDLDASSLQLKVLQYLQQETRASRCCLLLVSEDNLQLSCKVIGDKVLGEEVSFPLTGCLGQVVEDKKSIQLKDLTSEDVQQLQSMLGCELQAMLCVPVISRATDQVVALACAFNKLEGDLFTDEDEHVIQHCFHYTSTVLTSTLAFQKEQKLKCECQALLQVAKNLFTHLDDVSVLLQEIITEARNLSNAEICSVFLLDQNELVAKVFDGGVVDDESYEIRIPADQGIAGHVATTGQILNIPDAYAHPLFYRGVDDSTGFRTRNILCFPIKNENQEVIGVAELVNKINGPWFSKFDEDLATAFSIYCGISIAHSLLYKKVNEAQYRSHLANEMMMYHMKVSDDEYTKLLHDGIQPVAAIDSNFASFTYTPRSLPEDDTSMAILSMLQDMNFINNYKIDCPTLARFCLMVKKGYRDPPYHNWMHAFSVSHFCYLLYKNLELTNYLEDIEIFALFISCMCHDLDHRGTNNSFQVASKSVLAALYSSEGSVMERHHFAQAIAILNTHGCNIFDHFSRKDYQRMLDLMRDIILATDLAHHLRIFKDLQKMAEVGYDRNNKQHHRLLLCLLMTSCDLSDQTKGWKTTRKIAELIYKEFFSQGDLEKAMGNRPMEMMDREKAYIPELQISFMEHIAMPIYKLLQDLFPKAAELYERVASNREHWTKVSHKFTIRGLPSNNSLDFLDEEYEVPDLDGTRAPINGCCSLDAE
3',5'-cyclic-AMP phosphodiesterase 7B, sequence (Q9NP56 whole entry): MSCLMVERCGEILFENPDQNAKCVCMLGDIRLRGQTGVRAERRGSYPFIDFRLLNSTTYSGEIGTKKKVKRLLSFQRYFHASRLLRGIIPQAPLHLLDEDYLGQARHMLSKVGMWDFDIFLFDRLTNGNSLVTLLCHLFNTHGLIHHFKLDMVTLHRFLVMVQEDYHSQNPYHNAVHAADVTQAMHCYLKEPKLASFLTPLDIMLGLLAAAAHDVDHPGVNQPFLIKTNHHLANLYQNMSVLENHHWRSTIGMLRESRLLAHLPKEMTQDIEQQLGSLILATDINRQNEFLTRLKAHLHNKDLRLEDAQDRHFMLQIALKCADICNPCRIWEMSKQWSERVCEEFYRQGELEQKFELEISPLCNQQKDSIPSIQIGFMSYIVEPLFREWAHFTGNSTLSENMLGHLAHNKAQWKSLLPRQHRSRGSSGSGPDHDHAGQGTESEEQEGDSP
Dual 3',5'-cyclic-AMP and -GMP phosphodiesterase 11A, sequence (Q9HCR9 whole entry): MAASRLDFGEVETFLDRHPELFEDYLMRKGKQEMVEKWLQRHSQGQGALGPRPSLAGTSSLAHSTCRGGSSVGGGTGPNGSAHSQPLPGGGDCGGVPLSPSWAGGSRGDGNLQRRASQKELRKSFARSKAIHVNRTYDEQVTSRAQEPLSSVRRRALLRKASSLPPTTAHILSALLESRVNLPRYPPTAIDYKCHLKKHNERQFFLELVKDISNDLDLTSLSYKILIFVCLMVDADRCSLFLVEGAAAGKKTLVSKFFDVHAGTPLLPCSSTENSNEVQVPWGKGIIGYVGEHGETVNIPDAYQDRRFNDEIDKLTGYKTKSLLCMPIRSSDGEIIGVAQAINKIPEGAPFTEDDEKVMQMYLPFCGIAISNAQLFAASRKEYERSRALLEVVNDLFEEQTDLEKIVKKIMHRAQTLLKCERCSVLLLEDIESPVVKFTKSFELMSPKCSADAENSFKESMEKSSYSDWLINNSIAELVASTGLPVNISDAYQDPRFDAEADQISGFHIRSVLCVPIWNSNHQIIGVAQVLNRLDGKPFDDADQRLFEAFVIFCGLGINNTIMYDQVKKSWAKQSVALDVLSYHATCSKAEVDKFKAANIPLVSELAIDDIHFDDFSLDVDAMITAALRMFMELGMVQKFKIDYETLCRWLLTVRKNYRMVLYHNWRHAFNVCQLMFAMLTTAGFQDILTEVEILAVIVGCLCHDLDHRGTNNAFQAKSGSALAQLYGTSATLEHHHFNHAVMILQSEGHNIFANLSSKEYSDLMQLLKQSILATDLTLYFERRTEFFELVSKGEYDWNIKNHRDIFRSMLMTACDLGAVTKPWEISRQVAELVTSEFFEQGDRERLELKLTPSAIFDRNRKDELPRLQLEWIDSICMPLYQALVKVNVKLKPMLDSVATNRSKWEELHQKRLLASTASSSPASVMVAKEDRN
3',5'-cyclic-AMP phosphodiesterase 4D, sequence (Q08499 whole entry): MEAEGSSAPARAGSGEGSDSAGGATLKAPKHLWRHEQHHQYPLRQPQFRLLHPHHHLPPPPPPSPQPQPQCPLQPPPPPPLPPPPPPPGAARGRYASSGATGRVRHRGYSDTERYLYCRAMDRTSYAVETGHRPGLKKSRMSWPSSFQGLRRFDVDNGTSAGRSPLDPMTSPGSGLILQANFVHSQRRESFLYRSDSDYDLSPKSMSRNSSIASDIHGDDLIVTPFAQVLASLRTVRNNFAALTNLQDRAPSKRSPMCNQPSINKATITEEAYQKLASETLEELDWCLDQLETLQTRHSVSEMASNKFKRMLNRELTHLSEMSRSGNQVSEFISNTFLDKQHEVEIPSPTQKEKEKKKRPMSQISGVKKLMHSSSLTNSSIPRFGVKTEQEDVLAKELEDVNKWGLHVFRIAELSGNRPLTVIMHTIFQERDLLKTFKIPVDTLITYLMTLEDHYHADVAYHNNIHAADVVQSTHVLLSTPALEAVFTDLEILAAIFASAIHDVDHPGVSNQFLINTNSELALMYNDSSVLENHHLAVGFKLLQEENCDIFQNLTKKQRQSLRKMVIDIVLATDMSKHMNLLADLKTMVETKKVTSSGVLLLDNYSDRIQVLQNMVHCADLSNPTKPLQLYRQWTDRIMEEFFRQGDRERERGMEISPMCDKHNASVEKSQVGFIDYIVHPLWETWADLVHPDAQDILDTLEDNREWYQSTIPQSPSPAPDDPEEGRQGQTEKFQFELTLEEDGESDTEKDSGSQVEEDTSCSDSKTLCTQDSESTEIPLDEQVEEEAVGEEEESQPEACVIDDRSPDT
High affinity cAMP-specific and IBMX-insensitive 3',5'-cyclic phosphodiesterase 8B, sequence (O95263 whole entry): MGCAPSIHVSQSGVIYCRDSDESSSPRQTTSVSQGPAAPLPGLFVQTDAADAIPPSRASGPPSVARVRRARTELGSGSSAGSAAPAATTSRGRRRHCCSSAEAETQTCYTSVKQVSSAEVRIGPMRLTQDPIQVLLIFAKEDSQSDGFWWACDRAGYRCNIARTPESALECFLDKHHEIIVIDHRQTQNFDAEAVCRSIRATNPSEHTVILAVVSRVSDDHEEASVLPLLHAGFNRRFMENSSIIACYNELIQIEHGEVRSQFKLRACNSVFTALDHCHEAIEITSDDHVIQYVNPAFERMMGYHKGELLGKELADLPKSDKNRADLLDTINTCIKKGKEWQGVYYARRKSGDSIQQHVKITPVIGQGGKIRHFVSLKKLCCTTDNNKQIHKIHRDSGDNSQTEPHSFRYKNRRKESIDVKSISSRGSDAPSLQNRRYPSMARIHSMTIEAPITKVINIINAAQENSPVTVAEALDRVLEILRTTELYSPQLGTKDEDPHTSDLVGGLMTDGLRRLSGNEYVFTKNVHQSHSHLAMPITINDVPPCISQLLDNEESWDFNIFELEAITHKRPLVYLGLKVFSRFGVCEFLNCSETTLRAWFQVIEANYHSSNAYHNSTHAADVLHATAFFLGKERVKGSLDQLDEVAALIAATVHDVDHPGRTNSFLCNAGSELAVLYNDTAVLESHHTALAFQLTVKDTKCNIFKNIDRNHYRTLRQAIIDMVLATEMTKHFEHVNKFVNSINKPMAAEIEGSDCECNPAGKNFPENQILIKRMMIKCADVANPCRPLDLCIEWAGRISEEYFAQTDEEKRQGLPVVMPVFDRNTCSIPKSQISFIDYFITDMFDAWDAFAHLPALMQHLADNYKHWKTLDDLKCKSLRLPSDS
High affinity cGMP-specific 3',5'-cyclic phosphodiesterase 9A, sequence (O76083 whole entry): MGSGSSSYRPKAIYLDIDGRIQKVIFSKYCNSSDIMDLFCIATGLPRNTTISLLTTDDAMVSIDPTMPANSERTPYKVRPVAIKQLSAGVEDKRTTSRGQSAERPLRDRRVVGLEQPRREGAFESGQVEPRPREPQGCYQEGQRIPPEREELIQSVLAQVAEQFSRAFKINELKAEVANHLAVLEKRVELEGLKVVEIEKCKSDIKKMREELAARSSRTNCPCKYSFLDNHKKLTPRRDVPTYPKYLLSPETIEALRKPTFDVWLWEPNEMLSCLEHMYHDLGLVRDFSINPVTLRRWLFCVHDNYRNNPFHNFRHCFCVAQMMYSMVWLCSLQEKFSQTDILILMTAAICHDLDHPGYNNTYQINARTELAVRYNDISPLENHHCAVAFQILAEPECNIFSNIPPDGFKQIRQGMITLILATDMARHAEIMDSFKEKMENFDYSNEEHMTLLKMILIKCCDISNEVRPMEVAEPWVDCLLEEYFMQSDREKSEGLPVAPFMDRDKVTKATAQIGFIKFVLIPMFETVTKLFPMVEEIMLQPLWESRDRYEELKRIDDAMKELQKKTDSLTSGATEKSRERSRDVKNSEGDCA

- K (Cytochrome P450 3A): 0.09 min⁻¹
- hepatocyte CLint [1]: 12 µL/min/1e6 cells
- logD [2]: 2.6
- Activity [3]: inactive
- Activity (Melanocortin receptor 5): inactive
- clearance [5]: 21 mL/min/kg
- clearance [6]: 11 mL/min/kg
- Vd [7]: 0.95 L/kg
- half-life [8]: 58.8 min
- half-life [9]: 138 min
- half-life [10]: 216 min
- Tmax [11]: 30 min
- Tmax [12]: 22.8 min
- AUC(0-inf) [13]: 785 ng·h/mL
- AUC(0-inf) [14]: 1120 ng·h/mL
- AUC [15]: 1660 ng·h/mL
- AUC [16]: 4610 ng·h/mL
- AUC(0-t) [17]: 780 ng·h/mL
- AUC(0-t) [18]: 1640 ng·h/mL
- AUC(0-t) [19]: 4580 ng·h/mL
- F [20]: 93%
- IC50 [28]: > 50 µM
- IC50 [29]: > 50 µM
- IC50 [30]: > 50 µM
- IC50 [31]: > 50 µM
- IC50 (Phosphodiesterase 6): > 50 µM
- IC50 [32]: > 50 µM
- IC50 [33]: > 50 µM
- IC50 [34]: > 50 µM
- IC50 [35]: > 50 µM
- IC50 [36]: > 50 µM
Compound: COc1cc([C@@H](C)C(=O)N2CC[C@@]3(COc4cc(-c5ncccn5)c(C)nc4N3)C2)c(F)cn1
- Ki [4]: 0.094 nM
- Activity (Mus musculus [21]): Dose-Dependent Effect
- Activity (Mus musculus [22]): 2%
- Activity (Mus musculus [23]): 5%
- Activity (Mus musculus [24]): 22%
- Activity (Mus musculus [25]): 23%
- Activity (Mus musculus [26]): 40%
- Activity (Mus musculus [27]): 111%
- IC50 [37]: > 100 µM

— ChEMBL document CHEMBL5316345, “Discovery of the Potent and Selective MC4R Antagonist PF-07258669 for the Potential Treatment of Appetite Loss” (J Med Chem, 2023)
